# Assay results reported in patent US8288142B2, “Hyaluronidase and method of use thereof” (priority 2007, dated 2012).
# Tested on: hyaluronidase derived from Stm. Hyalurolyticus
# Settings: 10^−3-10^−4 M; Ohya 1970; cited from earlier work
row,Structure (SMILES),effect on hyaluronidase derived from Stm. Hyalurolyticus
1,[Hg+2] [Hg^2+],inhibit
2,[Cl][Mn][Cl] [MnCl2],inhibit
3,O=C(O)c1cc[c]([Hg][Cl])cc1 [para-Chloromercury-benzoate],inhibit

# Tested on: microbial hyaluronidase
# Type: biochemical, Streptomyces actinocidus
# Settings: not given
row,Structure (SMILES),Hyaluronidase activity (%)
1,[Cl-].[Cl-].[Co+2] [CoCl2],100

# Same assay, conditions: 10^−2 M
Structure (SMILES),inhibition of hyaluronidase activity [%],effect on hyaluronidase
O=S(=O)([O-])[O-].[Cu+2] [CuSO4],56,
[Cl][Fe]([Cl])[Cl] [FeCl3],65,
OCCS [beta-Mercaptoethanol],,completely inhibited
O=C(O)c1cc[c]([Hg][Cl])cc1 [para-Chloromercury-benzoate],,partially inhibited

# Same assay, conditions: 10^−3-10^−4 M
row,Structure (SMILES),effect on activity of microbial hyaluronidase
1,[Cl][Mn][Cl] [MnCl2],did not affect
2,O=C(O)c1cc[c]([Hg][Cl])cc1 [para-Chloromercury-benzoate],did not affect

# Same assay, conditions: 10^−3 M
row,Structure (SMILES),inhibition of activity of microbial hyaluronidase [%]
1,O=S(=O)([O-])[O-].[Cu+2] [CuSO4],25
2,[Cl][Fe]([Cl])[Cl] [FeCl3],25

# Same assay, conditions: reagent or salt 10^−2 M
row,Structure (SMILES),Hyaluronidase activity (%)
1,O=[N+]([O-])[O-].[Ag+] [AgNO3],100
2,[Ca+2].[Cl-].[Cl-] [CaCl2],100
3,O=S(=O)([O-])[O-].[Cu+2] [CuSO4],44
4,O=C(O)CN(CCN(CC(=O)O)CC(=O)O)CC(=O)O [EDTA],95
5,[Cl][Fe]([Cl])[Cl] [FeCl3],35
6,O=S(=O)([O-])[O-].[Fe+2] [FeSO4],100
7,II [I2],0
8,[Cl-].[K+] [KCl],100
9,O=S(=O)([O-])[O-].[Li+].[Li+] [LiSO4],100
10,[Cl][Mn][Cl] [MnCl2],100
11,[N-]=[N+]=[N-].[Na+] [Na3N],100
12,[Cl-].[Na+] [NaCl],100
13,O=S(=O)([O-])[O-].[Zn+2] [ZnSO4],100
14,OCCS [beta-Mercaptoethanol],0
15,O=C(O)c1cc[c]([Hg][Cl])cc1 [para-Chloromercury-benzoate],80

# Same assay, conditions: reagent or salt 10^−3 M
row,Structure (SMILES),Hyaluronidase activity (%)
1,O=[N+]([O-])[O-].[Ag+] [AgNO3],100
2,[Ca+2].[Cl-].[Cl-] [CaCl2],100
3,O=S(=O)([O-])[O-].[Cu+2] [CuSO4],85
4,O=C(O)CN(CCN(CC(=O)O)CC(=O)O)CC(=O)O [EDTA],100
5,[Cl][Fe]([Cl])[Cl] [FeCl3],85
6,O=S(=O)([O-])[O-].[Fe+2] [FeSO4],100
7,II [I2],12
8,[Cl-].[K+] [KCl],100
9,O=S(=O)([O-])[O-].[Li+].[Li+] [LiSO4],100
10,[Cl][Mn][Cl] [MnCl2],100
11,[N-]=[N+]=[N-].[Na+] [Na3N],100
12,[Cl-].[Na+] [NaCl],100
13,O=S(=O)([O-])[O-].[Zn+2] [ZnSO4],100
14,OCCS [beta-Mercaptoethanol],65
15,O=C(O)c1cc[c]([Hg][Cl])cc1 [para-Chloromercury-benzoate],100

# Same assay, conditions: reagent or salt 10^−4 M
row,Structure (SMILES),Hyaluronidase activity (%)
1,O=[N+]([O-])[O-].[Ag+] [AgNO3],100
2,[Ca+2].[Cl-].[Cl-] [CaCl2],100
3,O=S(=O)([O-])[O-].[Cu+2] [CuSO4],100
4,O=C(O)CN(CCN(CC(=O)O)CC(=O)O)CC(=O)O [EDTA],100
5,[Cl][Fe]([Cl])[Cl] [FeCl3],100
6,O=S(=O)([O-])[O-].[Fe+2] [FeSO4],100
7,[Cl-].[K+] [KCl],100
8,O=S(=O)([O-])[O-].[Li+].[Li+] [LiSO4],100
9,[Cl][Mn][Cl] [MnCl2],100
10,[N-]=[N+]=[N-].[Na+] [Na3N],100
11,[Cl-].[Na+] [NaCl],100
12,O=S(=O)([O-])[O-].[Zn+2] [ZnSO4],100
13,OCCS [beta-Mercaptoethanol],100
14,O=C(O)c1cc[c]([Hg][Cl])cc1 [para-Chloromercury-benzoate],100
